Measurements as given in patent publication US20010018416A1, “COMPOSITIONS AND METHODS FOR TREATING HEPATITIS-C” (priority 1997, published 2001).

Experiments:
[1] = tested on: A 549 cells (human small cell lung carcinoma); assay: DNA fragmentation test (LDH released by dying cells measured by optic density) after TNF-α; type: cell-based; settings: A549; TNF-α 10 nanograms/ml; GMDP 1 and 2 μg/ml; 8 hours
Protocol: The LDH analysis procedure is described above. A 549 cells (human small cell lung carcinoma) were utilized for the DNA fragmentation test and treated with GMDP 1 ug/ml and with GMDP 2 ug/ml for 2 hours and then treated with human TNF-α (Sigma Corp., St. Louis, Mo.). FIGS. 8 and 9 are plots of the optical density measurements of two different scans each with six samples utilizing the DNA fragmentation procedure. […] TNF-α levels were 10 nanograms/ml for all samples, while samples 1-4 contained no GMDP, sample 5 contained 1 μg/ml GMDP and sample 6 contained 2 μg/ml GMDP. Sample 1 was analyzed after 0 hours, sample 2 analyzed after 2 hours, sample 3 analyzed after 4 hours, while samples 4, 5, and 6 were analyzed after 8 hours. Accordingly, only samples 5 and 6 from each scan measure cell protection after 8 hours. […] In other words, the higher purity GMDP drastically increases cell protection and antiapoptotic activity.

hepatitis-C = tested on: hepatitis-C
Protocol: Twelve patients in the active stage of hepatitis-C were selected for this study. The study group consisted of eight females and four males between 36 and 57 years of age. […] The control powder contained vegetable oil, corn syrup solids, and lactose. Quality control (to check for product identity and purity) was done by HPLC through comparisons with those obtained from reference samples from Sigma Corp, St Louis, Mo. The GMDP powder was diluted with 10 ml sterile distilled water. The daily GMDP dosage ranged from 0.1-0.5 mg/kg of the patient's body weight for blastolysine 80-120 mg/kg of body weight. Statistical analysis were done with Epi-Info Statistical Package (Center for Disease Control and Prevention, Atlanta, Ga.) with two way comparison by the Fischer's exact test (two tailed). Eleven patients were orally administered GMDP at dosage of […] daily in a water solution for one or two months. One patient with 44000×1000 viral load and early liver cirrhosis was treated for one year. GMDP at dosage of 0.1-0.5 mg/kg daily was administered to 11 patients.

[2] = tested on: human CD4+ lymphocytes taken from AIDS patient; assay: LDH assay of the inhibition of Fas antigen mediated apoptosis in vitro; type: cell-based; settings: LDH release 16 h after anti-Fas antibodies, FIG. 3
Protocol: The following cell lines were used for this assay: A549 (human lung carcinoma cells), A431 (human […]), L929 (mouse […]), human CD4+ lymphocytes taken from AIDS patient. All cells are commercially available from ATCC. They were maintained in DME medium supplemented with 10% FCS and glutamine in CO2 incubator. Lactate dehydrogenase (LDH) assay Cells were seeded into 35 mm Petri dishes and grown up to 70% confluency. Then they were treated with human recombinant antibodies against Fas antigen (gift from […] Co.) in the concentration indicated in the figures. In cases where the cells were not spontaneously sensitive to Fas ligand induced cytolysis, cycloheximide (CHX), a powerful blocker of the protein synthesis, which sensitizes the cells to anti Fas antibodies action, was used in concentration of 25 μg/ml. Sixteen hours after treatment, 20 μl samples of the cultured supernatants were removed and assayed for LDH release by the Cytotox 96 assay (Promega Biotech., Madison, Wis.)in accordance with the manufacturer's instructions. This methodology is based upon the fact that when cells are dying they are releasing LDH. […] These samples were assayed in triplicate on an EL340 Microplate reader (Bic) Tech Instruments Inc.) at 490 nm wave length. The average of these three readings was plated on the graphs (FIGS. 1, 2, 3 and 4).

Structure (SMILES)	optical density relative to cells exposed to GMDP of about 97.3% purity [1]	reduction in bilirubin concentration (hepatitis-C; 2 patients with elevated level)	decrease of LDH and GGTP activity (hepatitis-C; 7 patients who had elevated level)	effect on AST and APT activity (hepatitis-C; 7 patients who had elevated level of these enzymes)	fatigue and nausea (hepatitis-C; after first week, all patients who had these symptoms)	serum HPC RNA test, reduction of viral load (hepatitis-C; after the first three weeks of treatment, all patients)	overall clinical conditions (hepatitis-C; all patients treated, follow up period)	toxic effects (hepatitis-C; human, in vivo, po)	free iron test (hepatitis-C; one patient with high levels of free iron)	effect on alkaline phosphates activity (hepatitis-C; one patient with previously elevated level)	follow-up liver biopsy, pathology examination (hepatitis-C; one patient, end of one year treatment)	follow-up liver biopsy (hepatitis-C; two patients with diagnosed mild necrosis and fibrosis)	maximum inhibition of Fas Ag antibodies mediated cell lysis (reduction) [2] [%]
CC(=O)NC1C(OC2C(CO)OC(O)C(NC(C)=O)C2OC(C)C(=O)NC(C)C(=O)NC(CCC(=O)O)C(N)=O)OC(CO)C(O)C1O [GMDP of about 98.3% purity, N-acetyl-D-glucosaminyl-(β1-4)-N-acetylmuramyl-L-alanyl-D-isoglutamine]	less than ½	–	–	–	–	–	–	–	–	–	–	–	–
CC(=O)NC1C(OC2C(CO)OC(O)C(NC(C)=O)C2OC(C)C(=O)NC(C)C(=O)NC(CCC(=O)O)C(N)=O)OC(CO)C(O)C1O [GMDP, N-acetyl-D-glucosaminyl-(β1-4)-N-acetylmuramyl-L-alanyl-D-isoglutamine]	–	19%(3)	34% (6)	beneficial effect	completely subsided	two-three fold reduction	improved	No patients experienced toxic effects	full normalization	Lowering effect	no sign of previous necrosis and cirrhosis	no necrosis or fibrotic change was detectable	72
